Reference: patent US20240293416A1, “TREATMENT OF LIVER DISORDERS WITH A THR-ß AGONIST” (Terns Pharmaceuticals, Inc., priority 2021, published 2024)
“Also recorded” adds a separate entry of the source.

How the values were obtained:
[1] = Single ascending dose trial: adverse event and safety monitoring; assay type: in vivo, human
Experimental: A single-ascending dose clinical trial of Compound 1 (potassium salt) was performed.

[2] = Solubilizer compatibility in formulation study; assay type: physicochemical; settings: co-formulation
Description: The level of SLS between 1.5% to 5.0% w/w was investigated.

[3] = Food effect on PK performance in beagle dogs; assay type: in vivo; settings: 10 mg capsule, 5% SLS; fasted vs high fat fed dogs, n=3 per group
Experimental: To determine the food effect on PK performance, beagle dogs were divided into two groups (n=3 per group). For the fasted group, dogs were fasted overnight through 4-hours post dosing. For the fed group, dogs were fed high fat food 30 minutes prior to administration.

[4] = Capsule stability studies under stressed conditions; assay type: physicochemical
Experimental: A direct encapsulation (DE) formulation study of Compound 1 was carried out. This work included DE process development for the preparation of 1 mg, 3 mg, 10 mg, 50 mg and placebo capsules by a semi-automatic or automatic capsule filling machine. Ingredients, ratios, filling weight, flowability and uniformity of the formulation were all evaluated. The developed processes are suitable for the manufacture of Compound 1 drug products for future clinical studies.
Silica gel desiccant was subsequently proposed for the packaging and proven to be effective to mitigate the formation of the impurity.
The effectiveness of the silica gel desiccant in minimizing the degradation was evaluated through comparative stability studies with or without desiccant included in the primary packaging. […] Therefore, packaging with 1 g desiccant was determined to improve product quality and increase product shelf life.

[5] = Multiple ascending dose trial: adverse event and safety monitoring; assay type: in vivo, human; settings: for AEs by relationship to drug: Not related / AEs by relationship to drug: Possibly related / AEs by relationship to drug: Related / AEs by relationship to drug: Unlikely related / Any AE, all CTCAE grades / Grade 1 / Grade 2 or higher / Serious AEs: N = 6
Experimental: A multiple-ascending dose clinical trial of Compound 1 was performed.

[6] = DIO-GAN NASH mice: trough plasma compound levels by LC-MS/MS; assay type: in vivo, C57BL/6JRj mice; settings: plasma 21-24 hours post final dose
Experimental: Terminal plasma samples were harvested by cardiac puncture approximately 21-24 hours after the last administration of compound(s). Terminal plasma samples were analyzed by high resolution LC-MS/MS using a Triple Quad 6500+ instrument. 20 μL of plasma sample was mixed with 200 μL of internal standard solution (100 ng/ml Labetalol+100 ng/ml Tolbutamide in acetonitrile), vortexed, and centrifuged at 4,000 rpm for 15 min at 4° C. […] The internal standard (retention time: 0.76 min), was used for quantification of the glucuronide metabolite of Compound 2 (retention time: 0.77 min). Calibration curves (1-3000 ng/mL) were generated in a matrix of mouse plasma (pooled vehicle control) for each analyte.
Terminal plasma samples collected by cardiac puncture 21-24 hours post final treatment dose (i.e., trough) were analyzed by LC-MS/MS. Values represent mean and standard deviation (SD). ND, not determined.

P-gp = P-gp (Homo sapiens, UniProt P08183); experiment: In vitro transporter inhibition, P-gp; assay type: in vitro ADME
[7] = test system: biopsy-confirmed DIO-NASH mice; experiment: DIO-GAN NASH mice: body weight, organ weight, body composition; assay type: in vivo, C57BL/6JRj mice; settings: doses per Table 16
Description: C57BL/6JRj male mice (n=138) were fed the Gubra Amylin NASH (GAN) diet (40% fat, 22% fructose, 2% cholesterol [D09100310, Research Diets]) or lean chow diet for 35 weeks before treatment start. Prior to treatment all animals underwent liver biopsy for histological confirmation (steatosis score ≥2 and fibrosis stage ≥1) and stratification using the nonalcoholic fatty liver disease (NAFLD) activity scoring (NAS) and fibrosis staging system. The diet-induced obese mice on GAN diet (DIO-GAN) were randomized to 8 treatment groups (Table 16) based on percent-area of picrosirius red (PSR) staining. […] Vehicle-dosed lean chow-fed controls served as healthy controls (n=10). Mice were maintained on their respective diets (GAN or lean chow) for the duration of the study. Within-subject comparisons (pre-vs. post-treatment) were performed for liver biopsy histopathological scores. Terminal quantitative endpoints included plasma/liver biochemistry, liver histomorphometry, and liver transcriptomic analysis by RNAseq.
The diet-induced obese, Gubra Amylin NASH model (DIO-GAN) recapitulates many of the histopathological features of human NASH (Hansen 2020). […] To induce NASH disease, C57BL/6JRj mice were maintained a on diet high in fat, cholesterol, and fructose (GAN diet) for >35 weeks. Prior to therapeutic intervention, mice were biopsied to assess NASH disease and fibrosis severity; mice with a steatosis score <2 and fibrosis stage <1 were excluded from the study. DIO-GAN mice were then randomized into 8 treatment groups (n=16 per group) based on the percent fractional area of Picrosirius red (PSR) staining of the pre-treatment biopsy as well as body fat tissue mass determined by whole body Echo-magnetic resonance imaging (EchoMRI). […] DIO-GAN mice administered vehicle by oral gavage once daily served as a control. Mice were treated for a total of 12 weeks and were maintained on GAN diet throughout the study. Lean mice (n=10), maintained on normal chow diet throughout the study served as healthy controls.
Body composition was determined at baseline (Week-1) and Week 11 of the study by whole body EchoMRI to determine the relative levels lean and fat tissue as a percentage of body weight. Baseline levels of lean and fat tissue were well balanced across treatment groups (FIGS. 33A and 33B).

[8] = 14-day daily dosing up to 10 mg

Sequence of P-gp (P08183 whole entry): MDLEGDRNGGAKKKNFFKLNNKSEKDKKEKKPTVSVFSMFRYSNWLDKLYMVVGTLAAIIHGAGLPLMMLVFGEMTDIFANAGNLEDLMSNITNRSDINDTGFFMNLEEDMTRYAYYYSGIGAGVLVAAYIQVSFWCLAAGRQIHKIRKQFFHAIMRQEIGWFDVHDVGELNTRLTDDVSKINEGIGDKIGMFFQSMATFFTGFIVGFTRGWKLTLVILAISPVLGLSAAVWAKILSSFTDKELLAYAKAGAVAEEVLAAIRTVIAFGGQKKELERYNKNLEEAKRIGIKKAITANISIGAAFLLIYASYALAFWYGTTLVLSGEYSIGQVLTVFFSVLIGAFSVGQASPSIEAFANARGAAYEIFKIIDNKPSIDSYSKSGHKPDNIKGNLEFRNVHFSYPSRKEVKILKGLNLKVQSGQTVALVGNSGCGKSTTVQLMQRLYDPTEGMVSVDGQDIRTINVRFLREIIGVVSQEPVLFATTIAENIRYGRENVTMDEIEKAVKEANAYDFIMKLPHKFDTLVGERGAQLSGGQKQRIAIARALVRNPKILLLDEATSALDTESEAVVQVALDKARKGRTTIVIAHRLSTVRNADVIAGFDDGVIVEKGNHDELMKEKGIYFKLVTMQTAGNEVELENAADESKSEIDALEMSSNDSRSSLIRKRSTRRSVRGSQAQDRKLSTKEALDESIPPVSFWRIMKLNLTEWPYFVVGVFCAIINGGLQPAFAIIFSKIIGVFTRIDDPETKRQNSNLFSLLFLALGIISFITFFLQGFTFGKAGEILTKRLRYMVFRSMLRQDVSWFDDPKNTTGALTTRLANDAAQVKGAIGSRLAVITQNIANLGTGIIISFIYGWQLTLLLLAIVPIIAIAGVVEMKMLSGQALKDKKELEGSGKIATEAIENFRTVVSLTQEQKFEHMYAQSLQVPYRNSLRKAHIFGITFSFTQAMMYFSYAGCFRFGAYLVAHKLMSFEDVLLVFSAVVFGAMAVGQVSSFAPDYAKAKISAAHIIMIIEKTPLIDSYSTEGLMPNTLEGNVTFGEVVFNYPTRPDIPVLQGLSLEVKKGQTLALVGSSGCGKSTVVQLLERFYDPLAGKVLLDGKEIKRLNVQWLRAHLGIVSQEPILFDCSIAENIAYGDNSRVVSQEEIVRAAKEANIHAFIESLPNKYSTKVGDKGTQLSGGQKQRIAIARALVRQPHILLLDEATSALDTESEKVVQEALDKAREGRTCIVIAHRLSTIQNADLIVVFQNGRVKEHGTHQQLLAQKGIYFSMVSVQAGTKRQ

In the case of `N#Cc1nn(-c2cc(Cl)c(Oc3n[nH]c(=O)c4ccccc34)c(Cl)c2)c(=O)[nH]c1=O` [Compound 1, 2-(3,5-dichloro-4-((4-oxo-3,4-dihydrophthalazin-1-yl)oxy)phenyl)-3,5-dioxo-2,3,4,5-tetrahydro-1,2,4-triazine-6-nitrile], the Heart rates ([1]; 24 hours after single dose) is reported as “remained stable and within the normal range”, the “plasma AUC0-∞ without any significant side effects” value ([1]; single ascending dose studies) is reported as ≤ 50,000 ng*hg/mL and the “overall safety and tolerability” value ([1]; single ascending doses up to 60 mg) is reported as “overall safe and well-tolerated”. For the same compound, the “TSH, free T3, and free T4 levels” value ([1]; single doses 3-60 mg) was “remained within the normal range”, the “bilirubin levels above the normal range” value ([1]; single doses 3-60 mg) was “no subjects” and the “cardiac biomarkers (troponin I, CK-MB) or other clinical safety tests” value ([1]; single doses 3-60 mg) was “no notable changes”. The “cardiac related AEs (e.g., tachycardia, arrythmias)” value ([1]; single doses 3-60 mg) was “No cardiac related AEs”, the “increases in ALT more than 2-times ULN” value ([1]; single doses 3-60 mg) was “No subjects” and the “severity of adverse events” value ([1]; single doses 3-60 mg) was “mild or moderate in severity”. The “vital signs or ECG parameters” value ([1]; single doses 3-60 mg) was “no remarkable changes”, the “compatibility with sodium lauryl sulfate (SLS)” value [2] was “good compatibility; also recorded: minimal or no degradation” and the “effect of ionic surfactants (e.g., SLS) on solubility” value [2] was “increased the aqueous solubility; also recorded: dramatic enhancement of solubility at all pH levels”. For the same compound, the “food effect on Tmax” value [3] was “delayed”, the “food effect on plasma exposure” value [3] was “did not have an impact on the plasma exposure” and the capsule short stability ([4]; 3 mg strength capsule, 60° C./75% RH, two weeks) was “a degradation impurity formed”. The “effect of desiccant packaging on degradation impurities” value ([4]; 1, 3, 10 and 50 mg capsules, 40° C./75% RH) was “significantly retarded the formation of degradation impurities”, the “AEs by relationship to drug: Not related” value ([5]; 3 mg once daily for 14 days) was 1 (16.7%) n (%) and the “AEs by relationship to drug: Possibly related” value (from here on “AEs … Possibly related”) ([5]; 3 mg once daily for 14 days) was 0 n (%). The “AEs by relationship to drug: Related” value ([5]; 3 mg once daily for 14 days) was 0 n (%), the “AEs by relationship to drug: Unlikely related” value (“AEs … Unlikely related” for short) ([5]; 3 mg once daily for 14 days) was 0 n (%) and the “Any AE, all CTCAE grades” value ([5]; 3 mg once daily for 14 days) was 1 (16.7%) n (%). The “Grade 1” value ([5]; 3 mg once daily for 14 days) was 1 (16.7%) n (%), the “Grade 2 or higher” value ([5]; 3 mg once daily for 14 days) was 0 n (%) and the “Serious AEs” value ([5]; 3 mg once daily for 14 days) was 0 n (%). The “AEs by relationship to drug: Not related” value ([5]; 6 mg once daily for 14 days) was 0 n (%), the “AEs … Possibly related” value ([5]; 6 mg once daily for 14 days) was 1 (16.7%) n (%) and the “AEs by relationship to drug: Related” value ([5]; 6 mg once daily for 14 days) was 0 n (%). The “AEs … Unlikely related” value ([5]; 6 mg once daily for 14 days) was 0 n (%), the “Any AE, all CTCAE grades” value ([5]; 6 mg once daily for 14 days) was 1 (16.7%) n (%) and the “Grade 1” value ([5]; 6 mg once daily for 14 days) was 1 (16.7%) n (%). The “Grade 2 or higher” value ([5]; 6 mg once daily for 14 days) was 0 n (%), the “Serious AEs” value ([5]; 6 mg once daily for 14 days) was 0 n (%) and the “AEs by relationship to drug: Not related” value ([5]; 10 mg once daily for 14 days) was 2 (33.3%) n (%). For the same compound, the “AEs … Possibly related” value ([5]; 10 mg once daily for 14 days) was 0 n (%), the “AEs by relationship to drug: Related” value ([5]; 10 mg once daily for 14 days) was 0 n (%) and the “AEs … Unlikely related” value ([5]; 10 mg once daily for 14 days) was 0 n (%). The “Any AE, all CTCAE grades” value ([5]; 10 mg once daily for 14 days) was 2 (33.3%) n (%), the “Grade 1” value ([5]; 10 mg once daily for 14 days) was 2 (33.3%) n (%) and the “Grade 2 or higher” value ([5]; 10 mg once daily for 14 days) was 0 n (%). The “Serious AEs” value ([5]; 10 mg once daily for 14 days) was 0 n (%), the “ALT increase to ≥2×ULN” value ([5]; 14-day daily dosing) was “no treated subject” and the “ECGs, cardiac biomarkers, or other clinical lab tests” value ([5]; 14-day daily dosing) was “No remarkable changes”. The “TSH or free T3” value ([5]; 14-day daily dosing) was “without clear change”, the “free T4” value ([5]; 14-day daily dosing) was “declined in dose-dependent fashion” and the free testosterone ([5]; 14-day daily dosing) was “no significant change in free levels”. For the same compound, the total testosterone ([5]; 14-day daily dosing) was “Dose-dependent total testosterone increases”, the “Heart rate and blood pressure” value [5, 8] was “remained stable throughout the study” and the “grade of AEs” value [5, 8] was “Grade 1”. The tolerability [5, 8] was “overall well-tolerated” and the GGT ([5]; 14-day daily dosing, values remaining below ULN) was “Dose-dependent GGT increases”.
For `Cn1cc(C(=O)O)c2ccc(C3CCC(OCc4c(-c5c(Cl)cccc5Cl)noc4C4CC4)CC3)cc21` (stereo not shown) [Compound 2], the “Mean trough analyte concentration (SD)” value ([6]; treatment group Combo-high, n = 14) was 3.3 (1.8) ng/mL, the “Mean trough analyte concentration (SD)” value ([6]; treatment group Combo-med, n = 16) was 5.8 (3.5) ng/mL and the “Mean trough analyte concentration (SD)” value ([6]; treatment group Compound 2 (10 mg/kg), n = 16) was 7.4 (3.8) ng/mL. The IC50 (P-gp) was 3.92 µM, the “body weight at the end of study vs DIO-GAN vehicle control” value ([7]; PO QD 12 weeks) was “significantly lower” and the “body weight during the study” value ([7]; PO QD 12 weeks) was “decreased body weight”. The “fat tissue (% BW, EchoMRI)” value ([7]; Week 11) was “reduced levels of fat tissue” and the “relative lean tissue mass (EchoMRI)” value ([7]; Week 11) was “significant increases”.
